In patent EP4617278A1, “NUCLEOTIDE ANALOG, AND COMPOSITION AND USE THEREOF” (priority 2022, dated 2024):

system: RSV A2 virus; assay: RSV CPE assay; details: human respiratory syncytial virus, HEp-2, 120 h, read-out: RSV A2 (Hep-2 cell) EC50

Row | Structure (SMILES) | EC50 [nM]
1 | CCC(CC)COC(=O)[C@H](Cc1ccccc1)N[P@](=O)(OC[C@H]1O[C@@](C#N)(c2ccc3c(N)ncnn23)[C@H](OC(=O)C(C)C)[C@@H]1OC(=O)C(C)C)Oc1ccccc1 [Compound 41b, (2R,3R,4R,5R)-2-(4-aminopyrrolo[2,1-f][1,2,4]triazin-7-yl)-2-cyano-5-((((S)-(((S)-1-(2-ethylbutoxy)-1-oxo-3-phenylpropan-2-yl)amino)(phenoxy)phosphoryl)oxy)methyl)tetrahydrofuran-3,4-diyl bis(2-methylpropionate)] | < 100
2 | CC(C)C(=O)O[C@H]1[C@@H](OC(=O)C(C)C)[C@](C#N)(c2ccc3c(N)ncnn23)O[C@@H]1CO[P@](=O)(N[C@@H](CC(=O)OC1CCC1)C(=O)OC1CCC1)Oc1ccccc1 [Compound 54a, (2R,3R,4R,5R)-2-(4-aminopyrrolo[2,1-f][1,2,4]triazin-7-yl)-2-cyano-5-((((R)-(((S)-1,4-dicyclobutoxy-1,4-dioxobutan-2-yl)amino)(phenoxy)phosphoryl)oxy)methyl)tetrahydrofuran-3,4-diyl bis(2-methylpropionate)] | 100 to 200
3 | CC(C)C(=O)O[C@H]1[C@@H](OC(=O)C(C)C)[C@](C#N)(c2ccc3c(N)ncnn23)O[C@@H]1CO[P@@](=O)(N[C@@H](CC(=O)OC1CCC1)C(=O)OC1CCC1)Oc1ccccc1 [Compound 54b, (2R,3R,4R,5R)-2-(4-aminopyrrolo[2,1-f][1,2,4]triazin-7-yl)-2-cyano-5-((((S)-(((S)-1,4-dicyclobutoxy-1,4-dioxobutan-2-yl)amino)(phenoxy)phosphoryl)oxy)methyl)tetrahydrofuran-3,4-diyl bis(2-methylpropionate)] | < 100
4 | CC(C)(C)C(=O)O[C@H]1[C@@H](OC(=O)C(C)(C)C)[C@](C#N)(c2ccc3c(N)ncnn23)O[C@@H]1CO[P@](=O)(N[C@@H](CC(=O)OC1CCC1)C(=O)OC1CCC1)Oc1ccccc1 [Compound 57a, (2R,3R,4R,5R)-2-(4-aminopyrrolo[2,1-f][1,2,4]triazin-7-yl)-2-cyano-5-((((R)-(((S)-1,4-dicyclobutoxy-1,4-dioxobutan-2-yl)amino)(phenoxy)phosphoryl)oxy)methyl)tetrahydrofuran-3,4-diyl bis(2,2-dimethylpropionate)] | 500 to 1000
5 | CC(C)(C)C(=O)O[C@H]1[C@@H](OC(=O)C(C)(C)C)[C@](C#N)(c2ccc3c(N)ncnn23)O[C@@H]1CO[P@@](=O)(N[C@@H](CC(=O)OC1CCC1)C(=O)OC1CCC1)Oc1ccccc1 [Compound 57b, (2R,3R,4R,5R)-2-(4-aminopyrrolo[2,1-f][1,2,4]triazin-7-yl)-2-cyano-5-((((S)-(((S)-1,4-dicyclobutoxy-1,4-dioxobutan-2-yl)amino)(phenoxy)phosphoryl)oxy)methyl)tetrahydrofuran-3,4-diyl bis(2,2-dimethylpropionate)] | 200 to 500

same assay, conditions: read-out: RSV A2 (Hep-2 cell) EC50; HEp-2 cells, RSV A2 virus, 5 days, CCK8

Row | Structure (SMILES) | EC50 [nM]
6 | CCC(CC)COC(=O)[C@H](Cc1ccccc1)N[P@@](=O)(OC[C@H]1O[C@@](C#N)(c2ccc3c(N)ncnn23)[C@H](OC(=O)C(C)C)[C@@H]1OC(=O)C(C)C)Oc1ccc(C(C)(C)C)cc1 [Compound 53a, (2R,3R,4R,5R)-2-(4-aminopyrrolo[2,1-f][1,2,4]triazin-7-yl)-2-cyano-5-((((((S)-1-(2-ethylbutoxy)-1-oxo-3-phenylpropan-2-yl)amino)((R)-4-tert-butylphenoxy)phosphoryl)oxy)methyl)tetrahydrofuran-3,4-diyl bis(2-methylpropionate)] | < 100
7 | CCC(CC)COC(=O)[C@H](Cc1ccccc1)N[P@](=O)(OC[C@H]1O[C@@](C#N)(c2ccc3c(N)ncnn23)[C@H](OC(=O)C(C)C)[C@@H]1OC(=O)C(C)C)Oc1ccc(C(C)(C)C)cc1 [Compound 53b, (2R,3R,4R,5R)-2-(4-aminopyrrolo[2,1-f][1,2,4]triazin-7-yl)-2-cyano-5-((((((S)-1-(2-ethylbutoxy)-1-oxo-3-phenylpropan-2-yl)amino)((S)-4-tert-butylphenoxy)phosphoryl)oxy)methyl)tetrahydrofuran-3,4-diyl bis(2-methylpropionate)] | < 100
